These results are taken from patent US10577363B2, “Substituted piperidine compounds” (EPIZYME, INC., priority 2014, dated 2020).

Each structure is given as a SMILES string.

By IC50 is commonly meant the midpoint of a concentration-inhibition curve.

This experiment deals with SMYD3 (Homo sapiens (Human), UniProt Q9H7B4). The experiment in a line: SMYD3 biochemical assay (SPA, 3H-SAM methylation of MEKK2 protein substrate). The settings on record: read-out: SMYD3 Biochem IC50 (μM)*. The essentials: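 Native full-length human SMYD3 (E. coli-expressed, tags removed) was preincubated with compound for 30 min at room temperature in 25 mM Tris-Cl pH 8.0, 1 mM TCEP, 0.005% BSG, 0.005% Tween 20. Reaction was started with 3H-SAM plus GST-MEKK2, quenched with 100 uM unlabeled SAM, and read by SPA scintillation counting.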
With `C[C@H]1CC(NC(=O)c2cc(C3CC3)on2)CCN1C(=O)[C@H]1CC[C@H](N)CO1` (stereo partly drawn) [compound 131, N-((2S)-1-((2R,5S)-5-aminotetrahydro-2H-pyran-2-carbonyl)-2-methylpiperidin-4-yl)-5-cyclopropylisoxazole-3-carboxamide], the IC50 came to 2.08 µM.

Take `C[C@H]1CC(NC(=O)c2cc(C3CC3)on2)CCN1C(=O)C1CCCNC1` (stereo partly drawn) [compound 132, 5-cyclopropyl-N-((2S)-2-methyl-1-(piperidine-3-carbonyl)piperidin-4-yl)isoxazole-3-carboxamide]: the concentration for half-maximal inhibition (IC50) is 5.55 µM. For `C[C@H]1CC(NC(=O)c2cc(C3CC3)on2)CCN1C(=O)C[C@H](O)CCN` (stereo partly drawn) [compound 133, N-((2S)-1-((R)-5-amino-3-hydroxypentanoyl)-2-methylpiperidin-4-yl)-5-cyclopropylisoxazole-3-carboxamide] the value was 6.24 µM.

In the case of `C[C@@H]1CC(NC(=O)c2cc(C3CC3)on2)CCN1C(=O)C[C@H](O)CCN` (stereo partly drawn) [compound 134, N-((2R)-1-((R)-5-amino-3-hydroxypentanoyl)-2-methylpiperidin-4-yl)-5-cyclopropylisoxazole-3-carboxamide], the IC50 was determined as 1.86 µM. Regarding `C[C@@H]1CC(NC(=O)c2cc(C3CC3)on2)CCN1C(=O)C1CNCC(O)C1` (stereo partly drawn) [compound 135, 5-cyclopropyl-N-((2R)-1-(5-hydroxypiperidine-3-carbonyl)-2-methylpiperidin-4-yl)isoxazole-3-carboxamide], the IC50 was 2.49 µM. For `C[C@@H]1CC(NC(=O)c2cc(C3CC3)on2)CCN1C(=O)C1CC12CCNCC2` (stereo partly drawn) [compound 136, 5-cyclopropyl-N-((2R)-2-methyl-1-(6-azaspiro[2.5]octane-1-carbonyl)piperidin-4-yl)isoxazole-3-carboxamide] the value was 0.759 µM; for `C[C@@H]1CC(NC(=O)c2cc(C3CC3)on2)CCN1C(=O)[C@H]1CC[C@H](O)CC1` (stereo partly drawn) [compound 137, 5-cyclopropyl-N-((2R)-1-((1r,4R)-4-hydroxycyclohexane-1-carbonyl)-2-methylpiperidin-4-yl)isoxazole-3-carboxamide], 41.2 µM; for `C[C@H]1CC(NC(=O)c2cc(C3CC3)on2)CCN1C[C@H]1CC[C@H](N)CC1` (stereo partly drawn) [compound 138, N-((2S)-1-(((1r,4S)-4-aminocyclohexyl)methyl)-2-methylpiperidin-4-yl)-5-cyclopropylisoxazole-3-carboxamide], 4.31 µM. On to `C[C@@H]1CC(NC(=O)c2cc(C3CC3)on2)CCN1C(=O)[C@H]1CC[C@H](N(C)C)CC1` (stereo partly drawn) [compound 139, 5-cyclopropyl-N-((2R)-1-((1r,4R)-4-(dimethylamino)cyclohexane-1-carbonyl)-2-methylpiperidin-4-yl)isoxazole-3-carboxamide], for which the half-inhibitory concentration (IC50) was 1.65 µM. For `CC1CNCCC1CC(=O)N1CCC(NC(=O)c2cc(C3CC3)on2)C[C@H]1C` (stereo partly drawn) [compound 140, 5-cyclopropyl-N-((2R)-2-methyl-1-(2-(3-methylpiperidin-4-yl)acetyl)piperidin-4-yl)isoxazole-3-carboxamide] the value was 0.842 µM; for `CC1CC(CC(=O)N2CCC(NC(=O)c3cc(C4CC4)on3)C[C@@H]2C)CCN1` (stereo partly drawn) [compound 141, 5-cyclopropyl-N-((2S)-2-methyl-1-(2-(2-methylpiperidin-4-yl)acetyl)piperidin-4-yl)isoxazole-3-carboxamide], 3.53 µM; for `C[C@H]1CC(NC(=O)c2cc(C3CC3)on2)CCN1C(=O)CCCN` (stereo partly drawn) [compound 142, N-((2S)-1-(4-aminobutanoyl)-2-methylpiperidin-4-yl)-5-cyclopropylisoxazole-3-carboxamide], 3.65 µM. The same measure for `C[C@@H]1CC(NC(=O)c2cc(C3CC3)on2)CCN1C(=O)[C@H]1CCC[C@@H](N)C1` (stereo partly drawn) [compound 143, N-((2R)-1-((1S,3R)-3-aminocyclohexane-1-carbonyl)-2-methylpiperidin-4-yl)-5-cyclopropylisoxazole-3-carboxamide]: 1.99 µM.

In the case of `C[C@@H]1CC(NC(=O)c2cc(C3CC3)on2)CCN1C(=O)C1CC2(CCNC2)C1` (stereo partly drawn) [compound 144, 5-cyclopropyl-N-((2R)-2-methyl-1-(6-azaspiro[3.4]octane-2-carbonyl)piperidin-4-yl)isoxazole-3-carboxamide], the IC50 came out at 0.546 µM.

As for `N[C@@H]1CC[C@@H](C(=O)N2CCC(NC(=O)c3cc(C4CC4)on3)CC2)C1` [compound 145, N-(1-((1R,3R)-3-aminocyclopentane-1-carbonyl)piperidin-4-yl)-5-cyclopropylisoxazole-3-carboxamide], the 50% inhibitory concentration (IC50) was found to be 5.98 µM. The same measure for `C[C@@H]1CN(C(=O)[C@H]2CC[C@H](N)CC2)CC[C@H]1NC(=O)c1cc(C2CC2)on1` [compound 146, N-((3R,4R)-1-((1r,4R)-4-aminocyclohexane-1-carbonyl)-3-methylpiperidin-4-yl)-5-cyclopropylisoxazole-3-carboxamide]: 2.28 µM.

For `C[C@@H]1CN(C(=O)CC2CCNCC2)CC[C@H]1NC(=O)c1cc(C2CC2)on1` [compound 147, 5-cyclopropyl-N-((3R,4R)-3-methyl-1-(2-(piperidin-4-yl)acetyl)piperidin-4-yl)isoxazole-3-carboxamide], the half-inhibitory concentration (IC50) is 1.53 µM. On to `CC1(NC(=O)c2cc(C3CC3)on2)CCN(C(=O)[C@H]2CC[C@H](N)CC2)CC1` [compound 150, N-(1-((1r,4r)-4-aminocyclohexane-1-carbonyl)-4-methylpiperidin-4-yl)-5-cyclopropylisoxazole-3-carboxamide], for which the IC50 amounted to 0.91 µM. For `CCOC(=O)C1CN(C(=O)[C@H]2CC[C@H](N)CC2)CCC1NC(=O)c1cc(C2CC2)on1` (stereo partly drawn) [compound 151, ethyl 1-((1r,4r)-4-aminocyclohexane-1-carbonyl)-4-(5-cyclopropylisoxazole-3-carboxamido)piperidine-3-carboxylate] the value was 3.54 µM; for `N[C@H]1CC[C@H](C(=O)N2CCC(NC(=O)c3cc(C4CC4)on3)C(F)(F)C2)CC1` (stereo partly drawn) [compound 152, N-(1-((1r,4r)-4-aminocyclohexane-1-carbonyl)-3,3-difluoropiperidin-4-yl)-5-cyclopropylisoxazole-3-carboxamide], 2.25 µM; for `CC1(NC(=O)c2cc(C3CC3)on2)CCN(C(=O)CC2CCNCC2)CC1` [compound 153, 5-cyclopropyl-N-(4-methyl-1-(2-(piperidin-4-yl)acetyl)piperidin-4-yl)isoxazole-3-carboxamide], 0.848 µM. For `O=C(NC1CCN(C(=O)CC2CCNCC2)CC1(F)F)c1cc(C2CC2)on1` (stereo not drawn) [compound 154, 5-cyclopropyl-N-(3,3-difluoro-1-(2-(piperidin-4-yl)acetyl)piperidin-4-yl)isoxazole-3-carboxamide], the concentration for half-maximal inhibition (IC50) turned out to be 1.56 µM. With `CC1(C)CN(C(=O)[C@H]2CC[C@H](N)CC2)CCC1NC(=O)c1cc(C2CC2)on1` (stereo partly drawn) [compound 155, N-(1-((1r,4r)-4-aminocyclohexane-1-carbonyl)-3,3-dimethylpiperidin-4-yl)-5-cyclopropylisoxazole-3-carboxamide], the IC50 was determined as 0.575 µM. Take `CC1(C)CN(C(=O)CC2CCNCC2)CCC1NC(=O)c1cc(C2CC2)on1` (stereo not drawn) [compound 157, 5-cyclopropyl-N-(3,3-dimethyl-1-(2-(piperidin-4-yl)acetyl)piperidin-4-yl)isoxazole-3-carboxamide]: the half-inhibitory concentration (IC50) was found to be 0.521 µM. The same measure for `CC1(NC(=O)c2cc(C3CC3)on2)CCN(C(=O)CCCN)CC1` [compound 158, N-(1-(4-aminobutanoyl)-4-methylpiperidin-4-yl)-5-cyclopropylisoxazole-3-carboxamide]: 7.34 µM.

For `CCOC(=O)[C@@H]1CC(NC(=O)c2cc(C3CC3)on2)CCN1C(=O)CCCN` (stereo partly drawn) [compound 159, ethyl (2S)-1-(4-aminobutanoyl)-4-(5-cyclopropylisoxazole-3-carboxamido)piperidine-2-carboxylate], the concentration for half-maximal inhibition (IC50) turned out to be 25.2 µM.

With `CCOC(=O)C1CN(C(=O)CCCN)CCC1NC(=O)c1cc(C2CC2)on1` (stereo not drawn) [compound 160, ethyl 1-(4-aminobutanoyl)-4-(5-cyclopropylisoxazole-3-carboxamido)piperidine-3-carboxylate], the concentration for half-maximal inhibition (IC50) turned out to be 2.23 µM. In the case of `CC1(C)CN(C(=O)CCCN)CCC1NC(=O)c1cc(C2CC2)on1` (stereo not drawn) [compound 161, N-(1-(4-aminobutanoyl)-3,3-dimethylpiperidin-4-yl)-5-cyclopropylisoxazole-3-carboxamide], the IC50 was determined as 1.25 µM. For `N[C@H]1CC[C@H](C(=O)N2CCC(NC(=O)c3cc(C4CC4)on3)C[C@H]2c2ccccc2)CC1` (stereo partly drawn) [compound 162, N-((2S)-1-((1r,4S)-4-aminocyclohexane-1-carbonyl)-2-phenylpiperidin-4-yl)-5-cyclopropylisoxazole-3-carboxamide] the value was greater than 10 µM; for `N[C@H]1CC[C@H](C(=O)N2CCC(NC(=O)c3cc(C4CC4)on3)C[C@@H]2c2ccccc2)CC1` (stereo partly drawn) [compound 163, N-((2R)-1-((1r,4R)-4-aminocyclohexane-1-carbonyl)-2-phenylpiperidin-4-yl)-5-cyclopropylisoxazole-3-carboxamide], 7.17 µM. With `C[C@@H]1CC(NC(=O)c2cc(C3CC3)on2)CCN1C(=O)C(C)(C)C1CCNCC1` (stereo partly drawn) [compound 164, 5-cyclopropyl-N-((2R)-2-methyl-1-(2-methyl-2-(piperidin-4-yl)propanoyl)piperidin-4-yl)isoxazole-3-carboxamide], the half-maximal inhibitory concentration (IC50) was determined as 5.91 µM. With `C[C@H]1CC(NC(=O)c2cc(C3CC3)on2)CCN1C(=O)C(C)(C)C1CCNCC1` (stereo partly drawn) [compound 165, 5-cyclopropyl-N-((2S)-2-methyl-1-(2-methyl-2-(piperidin-4-yl)propanoyl)piperidin-4-yl)isoxazole-3-carboxamide], the IC50 was 4.73 µM.

In the case of `CC1CC(CC(=O)N2CCC(NC(=O)c3cc(C4CC4)on3)C[C@H]2C)CCN1` (stereo partly drawn) [compound 166, 5-cyclopropyl-N-((2R)-2-methyl-1-(2-(2-methylpiperidin-4-yl)acetyl)piperidin-4-yl)isoxazole-3-carboxamide], the IC50 is 0.506 µM.
